In the NIST ThermoML archive (doi:10.1021/je1011828):
± gives the expanded uncertainty stated by the source.

Legend:
[1] = Liquid; for viscosity / mass density: 101 kPa; for viscosity: Capillary tube (Ostwald / Ubbelohde) method; for mass density: Pycnometric method; for thermal conductivity: 101.33 kPa, Hot wire method
[2] = wn = mass fraction of the nth substance listed; conditions: 101 kPa, Liquid; for viscosity: Capillary tube (Ostwald / Ubbelohde) method; for thermal conductivity: Hot wire method; for mass density: Pycnometric method

CO [methanol]
[1], 297.8 K
Conditions | mass density [kg/m3] | viscosity [mPa·s]
– | 791.8 ± 0.7 | 0.5463 ± 0.004

CCOC(F)(F)C(F)(F)C(F)(F)C(F)(F)F [1-ethoxy-1,1,2,2,3,3,4,4,4-nonafluorobutane]
[1]
Conditions | mass density [kg/m3] | thermal conductivity [W/m/K] | viscosity [mPa·s]
278.8 K | – | 0.0712 ± 0.0029 | –
297.8 K | 1417 ± 1.4 | – | 0.6065 ± 0.0053
298.2 K | 1417 ± 1.4 | 0.0662 ± 0.0027 | 0.6065 ± 0.0053
300.6 K | – | 0.0644 ± 0.0026 | –
314.1 K | – | 0.0616 ± 0.0025 | –
328.3 K | – | 0.059 ± 0.0024 | –
344.1 K | – | 0.0563 ± 0.0023 | –

CCCCOCC [butyl ethyl ether] + CCOC(F)(F)C(F)(F)C(F)(F)C(F)(F)F
[2], 298.2 K, w1 = 1
Conditions | mass density [kg/m3] | thermal conductivity [W/m/K] | viscosity [mPa·s]
– | 743 ± 0.9 | 0.1258 ± 0.0051 | 0.3868 ± 0.0049

CCCCOCC [butyl ethyl ether]
[1]
Conditions | mass density [kg/m3] | thermal conductivity [W/m/K] | viscosity [mPa·s]
298.15 K | – | 0.1258 ± 0.0051 | –
298.2 K | 743 ± 0.9 | – | 0.3868 ± 0.0049
299.62 K | – | 0.125 ± 0.0051 | –
312.17 K | – | 0.1229 ± 0.005 | –
333.39 K | – | 0.1017 ± 0.0041 | –
354.63 K | – | 0.0949 ± 0.0038 | –

CCOC(F)(F)C(F)(F)C(F)(F)C(F)(F)F [1-ethoxy-1,1,2,2,3,3,4,4,4-nonafluorobutane] + CCCCOCC
[2], 298.2 K
Conditions | mass density [kg/m3] | thermal conductivity [W/m/K] | viscosity [mPa·s]
w2 = 0 | 1417 ± 1.4 | 0.0662 ± 0.0027 | 0.6065 ± 0.0053
w2 = 0.1 | 1293.4 ± 1.3 | 0.0664 ± 0.0027 | 0.5458 ± 0.005
w2 = 0.2 | 1187.4 ± 1.2 | 0.0707 ± 0.0029 | 0.5042 ± 0.0048
w2 = 0.4 | 1024.9 ± 1.1 | 0.0774 ± 0.0031 | 0.4379 ± 0.0045
w2 = 0.6 | 907.4 ± 1 | 0.0921 ± 0.0037 | 0.4077 ± 0.0045
w2 = 0.8 | 813.7 ± 0.9 | 0.1085 ± 0.0044 | 0.397 ± 0.0047

CO [methanol] + CCOC(F)(F)C(F)(F)C(F)(F)C(F)(F)F
[2], 297.8 K, w1 = 1
Conditions | mass density [kg/m3] | viscosity [mPa·s]
– | 791.8 ± 0.7 | 0.5463 ± 0.004

CCOC(F)(F)C(F)(F)C(F)(F)C(F)(F)F [1-ethoxy-1,1,2,2,3,3,4,4,4-nonafluorobutane] + CO
[2], 297.8 K
Conditions | mass density [kg/m3] | thermal conductivity [W/m/K] | viscosity [mPa·s]
w2 = 0 | 1417 ± 1.4 | – | 0.6065 ± 0.0053
w2 = 0.1 | 1357 ± 1.3 | 0.0729 ± 0.0004 | 0.6034 ± 0.0052
w2 = 0.2 | 1294.4 ± 1.2 | 0.0794 ± 0.0004 | 0.6802 ± 0.0056
w2 = 0.4 | 1058.4 ± 1 | 0.0948 ± 0.0005 | 0.6089 ± 0.0048
w2 = 0.6 | 946.5 ± 0.9 | 0.1108 ± 0.0005 | 0.571 ± 0.0044
w2 = 0.8 | 852.6 ± 0.8 | 0.1326 ± 0.0006 | 0.5495 ± 0.0041
